Laboratory results: patent publication US10370333B2 (Sanford Burnham Prebys Medical Discovery Institute, priority 2012, dated 2019)

biological target: TNAP (Homo sapiens (Human), UniProt P05186); experiment: TNAP (PPi) inhibition assay, pyrophosphate as substrate; format: biochemical
Experimental: Expression plasmids containing a secreted epitope-tagged TNAP were transfected into COS-1 cells for transient expression. The medium was replaced with Opti-MEM 24 h later and serum-free media containing secreted proteins was collected 60 hours after electroporation. The medium was dialyzed against TBS containing 1 mM MgCl2 and […] (to remove phosphate) and filtered through a […] cellulose acetate filter.
To determine the inhibition selectivity for inhibitor candidates, human TNAP, PLAP or IAP were added to microtiter plates followed by addition of the substrate pNPP (0.5 mM) and activity was measured in 1 M DEA-HCl buffer, pH 9.8 or in 1 M Tris-HCl buffer, pH 7.5, containing 1 mM MgCl2 and 20 μM ZnCl2, in the presence of potential inhibitors (0-30 μM). TNAP, PLAP and IAP activities were adjusted to an approximate λA405 nm, equivalent to 1, measured after 30 min. Residual AP activity in the presence of inhibitors was expressed as percentage of the control activity. To investigate the mechanism of inhibition, double reciprocal plots of enzyme activity (expressed as mA405 nm min−1) vs. substrate concentration were constructed, in the presence of various concentrations of added inhibitors (0-30 μM). The y-axis intercepts of the 1/v vs. 1/[S] plots, were then plotted vs. [I] to graphically extract Ki values as the x-intercept in this plot. […] Inhibitors were further tested and sorted based on their kinetic properties at pH 7.4 using PPi, the relevant natural substrate of TNAP. […] Amounts of released phosphate were measured using the Biomol Green Reagent (Biomol Research Laboratories, Inc., Plymouth Meeting, Pa.).

SMILES	IC50
COc1ccc(OC)c(S(=O)(=O)Nc2cncc(-c3ccc(C)cc3)c2)c1 [Example III-10, 2,5-Dimethoxy-N-(5-p-tolyl-pyridin-3-yl)-benzenesulfonamide]	100 to 1000 nM
COc1ccc(Br)cc1S(=O)(=O)Nc1cncc(-c2ccc(C)cc2)c1 [Example III-11, 5-Bromo-2-methoxy-N-(5-p-tolyl-pyridin-3-yl)-benzenesulfonamide]	100 to 1000 nM
COc1ccc(OC)c(S(=O)(=O)Nc2cncc(-c3ccc(C(F)(F)F)cc3)c2)c1 [Example III-13, 2,5-Dimethoxy-N-(5-(4-(trifluoromethyl)phenyl)pyridin-3-yl)benzenesulfonamide]	100 to 1000 nM
COc1ccc(Br)cc1S(=O)(=O)Nc1cncc(-c2ccc(C(F)(F)F)cc2)c1 [Example III-14, 5-Bromo-2-methoxy-N-(5-(4-(trifluoromethyl)phenyl)pyridin-3-yl)benzenesulfonamide]	100 to 1000 nM
COc1ccc(Cl)cc1S(=O)(=O)Nc1cncc(-c2ccc(C(F)(F)F)cc2)c1 [Example III-15, 5-Chloro-2-methoxy-N-(5-(4-(trifluoromethyl)phenyl)pyridin-3-yl)benzenesulfonamide]	100 to 1000 nM
COc1ccc(OC)c(S(=O)(=O)Nc2cncc(-c3ccc(F)cc3)c2)c1 [Example III-16, N-[5-(4-Fluoro-phenyl)-pyridin-3-yl]-2,5-dimethoxy-benzenesulfonamide]	< 100 nM
COc1ccc(Br)cc1S(=O)(=O)Nc1cncc(-c2ccc(F)cc2)c1 [Example III-17, 5-Bromo-N-[5-(4-fluoro-phenyl)-pyridin-3-yl]-2-methoxy-benzenesulfonamide]	< 100 nM
COc1ccc(Cl)cc1S(=O)(=O)Nc1cncc(-c2ccc(F)cc2)c1 [Example III-18, 5-Chloro-N-[5-(4-fluoro-phenyl)-pyridin-3-yl]-2-methoxy-benzenesulfonamide]	< 100 nM
COc1ccc(OC)c(S(=O)(=O)Nc2cncc(-c3ccc(Cl)cc3)c2)c1 [Example III-19, N-[5-(4-Chloro-phenyl)-pyridin-3-yl]-2,5-dimethoxy-benzenesulfonamide]	100 to 1000 nM
COc1ccc(Br)cc1S(=O)(=O)Nc1cncc(-c2ccc(Cl)cc2)c1 [Example III-20, 5-Bromo-N-[5-(4-chloro-phenyl)-pyridin-3-yl]-2-methoxy-benzenesulfonamide]	100 to 1000 nM
COc1ccc(OC)c(S(=O)(=O)Nc2cncc(-c3ccc(Br)cc3)c2)c1 [Example III-22, N-[5-(4-Bromo-phenyl)-pyridin-3-yl]-2,5-dimethoxy-benzenesulfonamide]	100 to 1000 nM
COc1ccc(Br)cc1S(=O)(=O)Nc1cncc(-c2ccc(Br)cc2)c1 [Example III-23, 5-Bromo-N-[5-(4-bromo-phenyl)-pyridin-3-yl]-2-methoxy-benzenesulfonamide]	100 to 1000 nM
COc1ccc(Cl)cc1S(=O)(=O)Nc1cncc(-c2ccc(Br)cc2)c1 [Example III-24, N-[5-(4-Bromo-phenyl)-pyridin-3-yl]-5-chloro-2-methoxy-benzenesulfonamide]	100 to 1000 nM
COc1ccc(OC)c(S(=O)(=O)Nc2cncc(-c3ccccc3)c2)c1 [Example III-25, N-(5-Phenyl-pyridin-3-yl)-2,5-Dimethoxy-benzenesulfonamide]	< 100 nM
COc1ccc(Br)cc1S(=O)(=O)Nc1cncc(-c2ccccc2)c1 [Example III-26, 5-Bromo-2-methoxy-N-(5-phenyl-pyridin-3-yl)-benzenesulfonamide]	< 100 nM
COc1ccc(Cl)cc1S(=O)(=O)Nc1cncc(-c2ccccc2)c1 [Example III-27, 5-Chloro-2-methoxy-N-(5-phenyl-pyridin-3-yl)-benzenesulfonamide]	< 100 nM
COC(=O)c1ccc(-c2cncc(NS(=O)(=O)c3cc(OC)ccc3OC)c2)cc1 [Example III-28, 4-[5-(2,5-Dimethoxy-benzenesulfonylamino)-pyridin-3-yl]-benzoic Acid methyl ester]	< 100 nM
